Experimental data reported in patent publication US10584115B2, “Substituted pyridine and pyrazine BMI-1 inhibitors” (PTC Therapeutics, Inc., priority 2013, dated 2020).

test system: Bmi-1 protein; assay: Sandwich ELISA Assay (Bmi-1 protein level in HT-1080 cells after compound treatment); format: cell-based; conditions: Table 1, Bmi-1 sandwich ELISA, read-out: ELISA EC50 value for Bmi-1 protein
In short: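 HT-1080 cells exposed to compounds for 40–48 h at 37 °C (0.5% DMSO final), then lysed. Bmi-1 in lysates measured by sandwich ELISA (mouse monoclonal capture, rabbit anti-Bmi-1 detection, HRP anti-rabbit, TMB), read at OD450 with OD570 reference against a recombinant Bmi-1 standard curve (0–8000 pg/mL).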

EC50 [µM] | Structure (SMILES)
0.1 to 3 | Cc1nc2ccc(F)cn2c1-c1cc(C#N)cc(Nc2cccc(F)c2)n1 [compound 651, 2-(6-fluoro-2-methylimidazo[1,2-a]pyridin-3-yl)-6-[(3-fluorophenyl)amino}pyridine-4-carbonitrile]
0.01 to 0.1 | Cc1nc2cc(F)c(F)cc2n1-c1cc(N)cc(Nc2ccc(OC(F)(F)F)cc2)n1 [compound 652, 6-(5,6-difluoro-2-methyl-1H-benzimidazol-1-yl)-N^2-[4-(trifluoromethoxy)phenyl]pyridine-2,4-diamine]
0.01 to 0.1 | Cc1nc2ccc(F)cc2n1-c1cncc(Nc2ccc(Cl)c(F)c2)n1 [compound 654, N-(4-chloro-3-fluorophenyl)-6-(6-fluoro-2-methyl-1H-benzimidazol-1-yl)pyrazin-2-amine]
0.1 to 3 | COc1ccc(Nc2cc(C)cc(-n3c(C)nc4ccccc43)n2)cc1 [compound 655, N-(4-methoxyphenyl)-4-methyl-6-(2-methyl-1H-benzimidazol-1-yl)pyridin-2-amine]
0.01 to 0.1 | COc1ccc(Nc2cc(N)cc(-n3c(C)nc4cc(F)c(F)cc43)n2)cc1 [compound 656, 6-(5,6-difluoro-2-methyl-1H-benzimidazol-1-yl)-N^2-(4-methoxyphenyl)pyridine-2,4-diamine]
0.01 to 0.1 | Cc1ccc(Nc2cc(N)cc(-n3c(C)nc4cc(F)c(F)cc43)n2)cc1 [compound 657, 6-(5,6-difluoro-2-methyl-1H-benzimidazol-1-yl)-N^2-(4-methylphenyl)pyridine-2,4-diamine]
0.01 to 0.1 | Cc1nc2cc(F)c(F)cc2n1-c1cc(N)cc(Nc2ccc(Cl)cc2)n1 [compound 658, N^2-(4-chlorophenyl)-6-(5,6-difluoro-2-methyl-1H-benzimidazol-1-yl)pyridine-2,4-diamine]
0.1 to 3 | Cc1nc2ccccc2n1-c1cncc(Nc2ccc(C(C)(C)C)cc2)n1 [compound 659, N-(4-tert-butylphenyl)-6-(2-methyl-1H-benzimidazol-1-yl)pyrazin-2-amine]
0.01 to 0.1 | Cc1nc2ccccc2n1-c1cncc(Nc2ccc(OC(C)C)cc2)n1 [compound 660, 6-(2-methyl-1H-benzimidazol-1-yl)-N-[4-(propan-2-yloxy)phenyl]pyrazin-2-amine]
0.01 to 0.1 | Cc1nc2ccccc2n1-c1cncc(Nc2ccc(C(C)C)cc2)n1 [compound 661, 6-(2-methyl-1H-benzimidazol-1-yl)-N-[4-(propan-2-yl)phenyl]pyrazin-2-amine]
0.1 to 3 | CCc1ccc(Nc2cncc(-n3c(C)nc4ccccc43)n2)cc1 [compound 662, N-(4-ethylphenyl)-6-(2-methyl-1H-benzimidazol-1-yl)pyrazin-2-amine]
0.01 to 0.1 | CCCc1ccc(Nc2cncc(-n3c(C)nc4ccccc43)n2)cc1 [compound 663, 6-(2-methyl-1H-benzimidazol-1-yl)-N-(4-propylphenyl)pyrazin-2-amine]
0.1 to 3 | CCOc1ccc(Nc2cncc(-n3c(C)nc4ccccc43)n2)cc1 [compound 664, N-(4-ethoxyphenyl)-6-(2-methyl-1H-benzimidazol-1-yl)pyrazin-2-amine]
0.1 to 3 | C#Cc1ccc(Nc2cncc(-n3c(C)nc4ccccc43)n2)cc1 [compound 665, N-(4-ethynylphenyl)-6-(2-methyl-1H-benzimidazol-1-yl)pyrazin-2-amine]
0.1 to 3 | C=Cc1ccc(Nc2cncc(-n3c(C)nc4ccccc43)n2)cc1 [compound 666, N-(4-ethenylphenyl)-6-(2-methyl-1H-benzimidazol-1-yl)pyrazin-2-amine]
0.1 to 3 | Fc1ccc2nc(C(F)(F)F)c(-c3cncc(Nc4ccccc4)n3)n2c1 [compound 667, 6-[6-fluoro-2-(trifluoromethyl)imidazo[1,2-a]pyridin-3-yl]-N-phenylpyrazin-2-amine]
0.1 to 3 | N#Cc1ccc(Nc2cncc(-c3c(C(F)(F)F)nc4ccc(F)cn34)n2)cc1 [compound 668, 4-({6-[6-fluoro-2-(trifluoromethyl)imidazo[1,2-a]pyridin-3-yl]pyrazin-2-yl}amino)benzonitrile]
0.1 to 3 | Fc1ccc(Nc2cncc(-c3c(C(F)(F)F)nc4ccc(F)cn34)n2)cc1 [compound 669, N-(4-fluorophenyl)-6-[6-fluoro-2-(trifluoromethyl)imidazo[1,2-a]pyridin-3-yl]pyrazin-2-amine]

Second part, the compound before the results:

Structure (SMILES) | EC50 [µM]
Cc1nc2ccccc2n1-c1cc(N)cc(Nc2ccc(F)cc2)n1 [compound 605, N^2-(4-fluorophenyl)-6-(2-methyl-1H-benzimidazol-1-yl)pyridine-2,4-diamine] | 0.1 to 3
Cc1ccc(Nc2cc(C#N)cc(-n3c(C)nc4ccc(F)cc43)n2)cc1 [compound 611, 2-(6-fluoro-2-methyl-1H-benzimidazol-1-yl)-6-[(4-methylphenyl)amino]pyridine-4-carbonitrile] | 0.001 to 0.01
Cc1nc2ccc(F)cc2n1-c1cc(C#N)cc(Nc2ccc(Cl)cc2)n1 [compound 612, 2-[(4-chlorophenyl)amino]-6-(6-fluoro-2-methyl-1H-benzimidazol-1-yl)pyridine-4-carbonitrile] | 0.01 to 0.1
COc1ccc(Nc2cccc(-n3c(C)nc4cc(F)c(F)cc43)n2)cc1 [compound 613, 6-(5,6-difluoro-2-methyl-1H-benzimidazol-1-yl)-N-(4-methoxyphenyl)pyridin-2-amine] | 0.01 to 0.1
Cc1ccc(Nc2cccc(-n3c(C)nc4cc(F)c(F)cc43)n2)cc1 [compound 614, 6-(5,6-difluoro-2-methyl-1H-benzimidazol-1-yl)-N-(4-methylphenyl)pyridin-2-amine] | 0.01 to 0.1
Cc1nc2cc(F)c(F)cc2n1-c1cccc(Nc2ccc(Cl)cc2)n1 [compound 615, N-(4-chlorophenyl)-6-(5,6-difluoro-2-methyl-1H-benzimidazol-1-yl)pyridin-2-amine] | 0.1 to 3
Cc1nc2ccccc2n1-c1cncc(Nc2ccc(Br)cc2)n1 [compound 616, N-(4-bromophenyl)-6-(2-methyl-1H-benzimidazol-1-yl)pyrazin-2-amine] | 0.001 to 0.01
Cc1ccc(Nc2cc(-n3c(C)ccc3C)cc(-n3c(C)nc4ccccc43)n2)cc1 [compound 617, 4-(2,5-dimethyl-1H-pyrrol-1-yl)-6-(2-methyl-1H-benzimidazol-1-yl)-N-(4-methylphenyl)pyridin-2-amine] | 0.01 to 0.1
Cc1ccc(C)n1-c1cc(Nc2ccc(Cl)cc2)nc(-n2c(C)nc3ccccc32)c1 [compound 618, N-(4-chlorophenyl)-4-(2,5-dimethyl-1H-pyrrol-1-yl)-6-(2-methyl-1H-benzimidazol-1-yl)pyridin-2-amine] | 0.1 to 3
Cc1nc2ccccc2n1-c1cncc(Nc2ccc(I)cc2)n1 [compound 619, N-(4-iodophenyl)-6-(2-methyl-1H-benzimidazol-1-yl)pyrazin-2-amine] | 0.001 to 0.01
CCc1nc2ccc(F)cc2n1-c1cncc(Nc2ccccc2)n1 [compound 620, 6-(2-ethyl-6-fluoro-1H-benzimidazol-1-yl)-N-phenylpyrazin-2-amine] | 0.1 to 3
CCc1nn2ccccc2c1-c1cncc(Nc2ccc(OC)cc2)n1 [compound 627, 6-(2-ethylpyrazolo[1,5-a]pyridin-3-yl)-N-(4-methoxyphenyl)pyrazin-2-amine] | < 0.001
CCc1nn2ccccc2c1-c1cncc(Nc2ccc(C)cc2)n1 [compound 628, 6-(2-ethylpyrazolo[1,5-a]pyridin-3-yl)-N-(4-methylphenyl)pyrazin-2-amine] | < 0.001
CCc1nn2ccccc2c1-c1cncc(Nc2ccc(Cl)cc2)n1 [compound 629, N-(4-chlorophenyl)-6-(2-ethylpyrazolo[1,5-a]pyridin-3-yl)pyrazin-2-amine] | 0.001 to 0.01
CCc1nn2ccccc2c1-c1cncc(Nc2ccc(F)cc2)n1 [compound 630, 6-(2-ethylpyrazolo[1,5-a]pyridin-3-yl)-N-(4-fluorophenyl)pyrazin-2-amine] | 0.1 to 3
CCc1nn2ccccc2c1-c1cncc(Nc2ccccc2)n1 [compound 631, 6-(2-ethylpyrazolo[1,5-a]pyridin-3-yl)-N-phenylpyrazin-2-amine] | 0.1 to 3
Cc1ccc(Nc2cc(N)cc(-n3c(C)nc4ccccc43)n2)cc1 [compound 632, 6-(2-methyl-1H-benzimidazol-1-yl)-N^2-(4-methylphenyl)pyridine-2,4-diamine] | 0.001 to 0.01
Cc1nc2ccccc2n1-c1cc(N)cc(Nc2ccc(Cl)cc2)n1 [compound 633, N^2-(4-chlorophenyl)-6-(2-methyl-1H-benzimidazol-1-yl)pyridine-2,4-diamine] | 0.01 to 0.1
CCc1nn2ccccc2c1-c1cncc(Nc2cccc(OC)c2)n1 [compound 640, 6-(2-ethylpyrazolo[1,5-a]pyridin-3-yl)-N-(3-methoxyphenyl)pyrazin-2-amine] | 0.01 to 0.1
CCc1nn2ccccc2c1-c1cncc(Nc2ccc(C#N)cc2)n1 [compound 641, 4-{[6-(2-ethylpyrazolo[1,5-a]pyridin-3-yl)pyrazin-2-yl]amino}benzonitrile] | 0.01 to 0.1
CCc1nn2ccccc2c1-c1cncc(Nc2ccc(C(=O)OC)cc2)n1 [compound 642, methyl 4-{[6-(2-ethylpyrazolo[1,5-a]pyridin-3-yl)pyrazin-2-yl]amino}benzoate] | 0.01 to 0.1
CCc1nn2ccccc2c1-c1cncc(Nc2cccc(Cl)c2)n1 [compound 643, N-(3-chlorophenyl)-6-(2-ethylpyrazolo[1,5-a]pyridin-3-yl)pyrazin-2-amine] | 0.1 to 3
Cc1nc2ccccc2n1-c1cncc(Nc2ccc(C(F)(F)F)cc2F)n1 [compound 644, N-[2-fluoro-4-(trifluoromethyl)phenyl]-6-(2-methyl-1H-benzimidazol-1-yl)pyrazin-2-amine] | 0.01 to 0.1
Cc1nc2ccccc2n1-c1cncc(Nc2cc(F)c(C(F)(F)F)c(F)c2)n1 [compound 645, N-[3,5-difluoro-4-(trifluoromethyl)phenyl]-6-(2-methyl-1H-benzimidazol-1-yl)pyrazin-2-amine] | 0.01 to 0.1
